In paper PMC12314892, “Macrocyclic Phage Display for Identification of Selective Protease Substrates” (Journal of the American Chemical Society, 2025):
*1 amine or outer side, *2 acyl side, *3 side chain or, on linkers, in order; H or OH if unused. Where a SMILES comes first, the peptide text is derived from it. Bridges are numbered along the chain shown (N, C = ends). The star is where a group is joined. X1 = NC(=O)Cc1cc(=O)oc2cc(NC(=O)[C@@H]3CCCN3C(=O)Cn3nc(C[*:1])cc3C[*:2])ccc12; AMC = Cc1cc(=O)oc2cc(N*)ccc12

Tests used:
[1] = molecular target: T1, Recombinant Human DPP9 (Homo sapiens, UniProt Q86TI2); experiment: Fluorogenic substrate cleavage assay; assay type: biochemical; settings: Supplementary figure 11; 200 μM, 1 hour at 37°C; 2 nM DPP4 vs 6 nM DPP9; RFU/min
T1 construct: purchased R&D Systems 5419-SE-010
Experimental: (§1) Fluorogenic Substrate Cleavage Assay
(§2) The following proteases were used for the activity assay: Recombinant Human FAPα Protein, CF (R&D Systems, Catalog No.: 3715-SE-010), Recombinant Human Prolyl Oligopeptidase/PREP Protein, CF (R&D Systems, Catalog No.: 4308-SE-010). Recombinant Human DPP9 Protein, CF (R&D Systems, Catalog No.: 5419-SE-010). Recombinant Human DPP4 Protein (Sino Biological, Catalog No.: 10688-HNCH-10). The buffers used for the activity assay were: FAPα - 50 mM Tris, 1 M NaCl, 1 mg/mL BSA, pH 7.5, PREP- 25 mM Tris, 250 mM NaCl, 2.5 mM DTT, pH 7.5 (DTT was freshly added immediately before use), DPP9- 25 mM Tris, pH 7.5, DPP4- 25 mM Tris, pH
(§3) 7.5. The following commercial substrates were used: zGP-AMC (Bachem,Catalog No.: […]
(§4) conducted in Greiner Bio-One black microplates of 384 wells and polystyrene F-bottom (Catalog No.: 784076). All compounds were dissolved in DMSO at a concentration of 10 mM and then diluted into the respective buffer to the desired final concentration. The protease was added to the specified concentration before the fluorescence measurements. For fluorescence measurements, 2 μL of substrate was further diluted into 6 μL of buffer, followed by addition of 2 μL of enzyme in buffer. For no enzyme controls 2 μL of substrate was diluted into 8 μL of buffer.
(§5) The fluorescence was measured using a Cytation 3 plate reader (BioTek). All experiments have at least three technical replicates. All assays were conducted at 37°C for a minimum of 90 min, unless otherwise noted. Fluorescence measurements were performed at ex/em, 355/460 nm for ACC substrates. The substrates velocity was quantified by calculating the slope of the linear phase of the reaction as relative fluorescence units (RFU) per min. […]

[2] = molecular target: T2, Recombinant Human FAPα (Homo sapiens, UniProt Q12884); experiment: Fluorogenic substrate cleavage assay; assay type: biochemical
T2 construct: purchased R&D Systems 3715-SE-010
T2 sequence (Q12884 1-760): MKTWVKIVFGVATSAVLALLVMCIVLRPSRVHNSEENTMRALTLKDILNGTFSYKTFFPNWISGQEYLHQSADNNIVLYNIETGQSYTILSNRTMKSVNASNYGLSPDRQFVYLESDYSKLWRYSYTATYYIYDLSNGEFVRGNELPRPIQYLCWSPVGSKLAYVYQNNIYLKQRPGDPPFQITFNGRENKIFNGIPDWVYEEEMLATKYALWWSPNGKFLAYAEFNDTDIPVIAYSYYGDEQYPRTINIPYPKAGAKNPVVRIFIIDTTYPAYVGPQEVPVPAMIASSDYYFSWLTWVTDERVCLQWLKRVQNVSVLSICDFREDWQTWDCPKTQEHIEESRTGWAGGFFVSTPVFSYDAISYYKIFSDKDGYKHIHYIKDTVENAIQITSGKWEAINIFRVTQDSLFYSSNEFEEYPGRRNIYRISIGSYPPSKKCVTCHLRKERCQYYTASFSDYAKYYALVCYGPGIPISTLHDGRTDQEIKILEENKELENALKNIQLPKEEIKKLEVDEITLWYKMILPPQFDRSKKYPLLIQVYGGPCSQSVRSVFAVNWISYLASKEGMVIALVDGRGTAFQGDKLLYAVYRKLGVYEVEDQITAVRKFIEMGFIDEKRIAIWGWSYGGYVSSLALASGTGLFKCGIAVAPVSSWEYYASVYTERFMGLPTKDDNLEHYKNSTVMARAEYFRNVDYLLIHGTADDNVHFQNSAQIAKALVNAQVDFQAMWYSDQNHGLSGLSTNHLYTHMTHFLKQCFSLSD
Experimental: as §1, §2, §3, §4, §5

T1 sequence (Q86TI2 whole entry): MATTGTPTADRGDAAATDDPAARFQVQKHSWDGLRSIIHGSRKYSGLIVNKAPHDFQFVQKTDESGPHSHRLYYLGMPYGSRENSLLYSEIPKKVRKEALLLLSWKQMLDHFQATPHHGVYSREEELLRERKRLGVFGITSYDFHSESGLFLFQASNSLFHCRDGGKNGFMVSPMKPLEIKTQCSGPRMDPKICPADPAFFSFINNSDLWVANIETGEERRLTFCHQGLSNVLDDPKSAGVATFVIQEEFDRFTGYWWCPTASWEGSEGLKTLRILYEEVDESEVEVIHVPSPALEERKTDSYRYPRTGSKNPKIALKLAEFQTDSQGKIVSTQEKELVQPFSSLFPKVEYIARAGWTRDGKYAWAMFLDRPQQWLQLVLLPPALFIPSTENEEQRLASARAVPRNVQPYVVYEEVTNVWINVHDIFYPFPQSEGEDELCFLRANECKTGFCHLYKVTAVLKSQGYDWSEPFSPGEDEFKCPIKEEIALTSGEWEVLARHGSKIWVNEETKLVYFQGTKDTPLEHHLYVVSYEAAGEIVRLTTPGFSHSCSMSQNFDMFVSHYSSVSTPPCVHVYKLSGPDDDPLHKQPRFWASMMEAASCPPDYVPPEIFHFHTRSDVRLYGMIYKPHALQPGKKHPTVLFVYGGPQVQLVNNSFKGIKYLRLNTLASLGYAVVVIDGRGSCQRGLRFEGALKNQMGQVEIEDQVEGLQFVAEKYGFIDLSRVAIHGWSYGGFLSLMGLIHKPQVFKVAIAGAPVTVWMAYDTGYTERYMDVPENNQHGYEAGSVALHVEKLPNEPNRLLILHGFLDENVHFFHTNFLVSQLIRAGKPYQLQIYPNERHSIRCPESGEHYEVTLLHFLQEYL

Row | Compound | selectivity for DPP4 (vs DPP9) [1] | selectivity for DPP4 (vs FAPα) ([2]; Supplementary figure 11, 200 μM, 1 hour at 37°C, 2 nM DPP4 vs 10 nM FAPα, RFU/min) | FAPα activity (substrate cleavage, RFU/min), in words ([2]; substrate 200 μM, 10 nM FAPα, 37 °C, triplicates)
1 | Cc1cc(=O)oc2cc(NC(=O)[C@@H]3CCCN3C(=O)CN)ccc12 [GP-AMC] (H-Gly-Pro-{AMC}) | 11 fold | 16 fold | –
2 | CC(C)[C@@H]1NC(=O)[C@@H](N)CSCc2cc(n(CC(=O)N3CCC[C@H]3C(=O)Nc3ccc4c(CC(N)=O)cc(=O)oc4c3)n2)CSC[C@@H](C(=O)NCC(N)=O)NC(=O)[C@H](CC(=O)O)NC(=O)[C@H](C)NC(=O)[C@H](CC(N)=O)NC(=O)[C@H](CCC(N)=O)NC(=O)[C@H](Cc2ccccc2)NC(=O)[C@H](CO)NC1=O [FAP-33.2A6] (H-CVSFQNADCG-NH2; linker 1-9 via X1; N-terminus assumed) | – | – | better substrate than the parent FAP-33.2
